Tests used:
C57BL/6 EAE mice = test: Histological evaluation of brain and spinal cord in EAE mice; assay type: in vivo; settings: 100 mg/kg
Description: Histological evaluation was done on paraformaldehyde-fixed, paraffin-embedded sections of brain and spinal cord. Sections 10 μm thick) were stained with hematoxylin and Luxol Fast Blue to assess inflammation and demyelination. Semiquantitative histological evaluation for inflammation and demyelination was conducted and scored blindly using the following scale: 0=normal; 1=1 to 3/section perivascular cuffs with minimal demyelination; 2=3 to 10 perivascular cuffs/section accompanied by moderate demyelination; 3=wide-spread perivascular cuffing, extensive demyelination with large confluent lesions (Villoslada et al., 2001).
Immunohistochemical procedures were performed on 10 μm paraffin-embedded sections of brain and spinal cord as described previously (Villoslada et al., 2001). Primary antibodies were added at concentrations of 1/1000 for MCA500 (rat anti-mouse CD3 from Serotec) and 1/500 for MCA1107 (rat anti-mouse CD4 from Serotec). Specificity of the immunoreaction was determined by incubating sections without the primary antibodies or using the corresponding isotype controls which yielded no immunoreactivity.

RN22 cells = test: RN22 cell survival under CuSO4 stress (MTT); assay type: cell-based, rat; settings: CuSO4 150 μM, 24 h, peptoids 1 ng/ml-10 μg/ml; compared with NGF 100 ng/ml
Description: The library was also tested to assess their capacity to promote cell survival of myelin producing cells. To delineate p75 signalling independent of TrkA, we used a rat schwannoma cell line (RN22) expressing p75, but not TrkA, (Gentry et al., 2000).
The rat schawnnoma cell line RN22 was cultured in 5% CO2 at 37° C. in Dulbecco's modified Eagle's medium (DMEM) with 10% fetal bovine serum (FBS) and penicillin/streptomycin.
RN22 cells were plated at 20,000 cells/well on a 24-well plate in DMEM alone and after allowing the cells to adhere for 3 days, cupper sulphate (CuSO4) (150 μM) was added with or without NGF (100 ng/ml) or the peptoids N35-4-8C, N6-4-17C and N35-4-17C at different concentrations (1 ng/ml-10 μg/ml) to generate stress and cell death. After 24 h cell viability was studied by determining the amount of yellow MTT (Sigma) that was reduced to insoluble purple formazan. After removing the medium, the water-insoluble formazan was solubilised with DMSO (Sigma), and the dissolved material was measured spectrophotometrically at a wavelength of 570 nm, subtracting the background at 650 nm (Frade, 2005).

Q: Which “histological scores at the brain and spinal cord level” value (C57BL/6 EAE mice; day 26, vs placebo, p<0.05) does the source give for `CC(C)CCN(CC(=O)N(CCCN1CCCC1=O)CC(N)=O)C(=O)CNCCc1ccccc1F` [N35-4-8C, [N-(2-(2′-Fluorophenyl)ethyl)glycyl]-[N-(3-methylbutyl)glycyl]-N-[3-(2′-oxopyrrolidinyl)propyl]glycinamide] here?
A: significant lower histological scores

Q: What about the “demyelination areas (Luxol fast blue)” value (C57BL/6 EAE mice; spinal cord, vs placebo) of the same compound?
A: decreased

Q: What about the “inflammatory infiltrates in the brain and the spinal cord” value (C57BL/6 EAE mice; vs placebo, p<0.05) of the same compound?
A: less inflammatory infiltrates

Q: And the “survival of RN22 cells (cell viability, MTT)” value (RN22 cells)?
A: promote survival of RN22 cells

Reference: patent publication US20120237552A1, “Peptoid Agonists of Nerve Growth Factor and Their Use as Medicaments” (priority 2009, published 2012)
